Assay results from patent publication US9593145B2, “Secondary structure stabilized NMDA receptor modulators and uses thereof” (Northwestern University, priority 2010, dated 2017).
“Also recorded” adds a separate entry of the source. Like-named read-outs stand apart in the source and are kept apart here. Blank lines part the entries; values can stand above or below the compound they belong to. Residues, ends and D or L forms follow the SMILES beside them.

How the values were obtained:
Glutamate, AMPA = experiment: binding assay, Glutamate, AMPA; parameters: species or system rat; conditions: 10 μM
Excerpt: (§1) Table B depicts the results of binding assays against various targets with AK51: […]

Glutamate, Kainate = experiment: binding assay, Glutamate, Kainate; parameters: species or system rat; conditions: 10 μM
Excerpt: as §1

Glutamate, NMDA, Agonism = experiment: binding assay, Glutamate, NMDA, Agonism; parameters: species or system rat; conditions: 10 μM
Excerpt: as §1

[1] = test system: Glutamate, NMDA, Phencyclidine; experiment: binding assay, Glutamate, NMDA, Phencyclidine; parameters: species or system rat; conditions: 10 μM
Excerpt: as §1

[2] = test system: Glutamate, NMDA, Polyamine; experiment: binding assay, Glutamate, NMDA, Polyamine; parameters: species or system rat; conditions: 10 μM
Excerpt: as §1

Glutamate, Non-Selective = experiment: binding assay, Glutamate, Non-Selective; parameters: species or system rat; conditions: 10 μM
Excerpt: as §1

[3] = test system: Glycine, Strychnine-Sensitive; experiment: binding assay, Glycine, Strychnine-Sensitive; parameters: species or system rat; conditions: 10 μM
Excerpt: as §1

Potassium Channel hERG = Potassium Channel hERG (Homo sapiens, UniProt Q12809); experiment: binding assay, Potassium Channel hERG
Sequence of Potassium Channel hERG (Q12809 whole entry): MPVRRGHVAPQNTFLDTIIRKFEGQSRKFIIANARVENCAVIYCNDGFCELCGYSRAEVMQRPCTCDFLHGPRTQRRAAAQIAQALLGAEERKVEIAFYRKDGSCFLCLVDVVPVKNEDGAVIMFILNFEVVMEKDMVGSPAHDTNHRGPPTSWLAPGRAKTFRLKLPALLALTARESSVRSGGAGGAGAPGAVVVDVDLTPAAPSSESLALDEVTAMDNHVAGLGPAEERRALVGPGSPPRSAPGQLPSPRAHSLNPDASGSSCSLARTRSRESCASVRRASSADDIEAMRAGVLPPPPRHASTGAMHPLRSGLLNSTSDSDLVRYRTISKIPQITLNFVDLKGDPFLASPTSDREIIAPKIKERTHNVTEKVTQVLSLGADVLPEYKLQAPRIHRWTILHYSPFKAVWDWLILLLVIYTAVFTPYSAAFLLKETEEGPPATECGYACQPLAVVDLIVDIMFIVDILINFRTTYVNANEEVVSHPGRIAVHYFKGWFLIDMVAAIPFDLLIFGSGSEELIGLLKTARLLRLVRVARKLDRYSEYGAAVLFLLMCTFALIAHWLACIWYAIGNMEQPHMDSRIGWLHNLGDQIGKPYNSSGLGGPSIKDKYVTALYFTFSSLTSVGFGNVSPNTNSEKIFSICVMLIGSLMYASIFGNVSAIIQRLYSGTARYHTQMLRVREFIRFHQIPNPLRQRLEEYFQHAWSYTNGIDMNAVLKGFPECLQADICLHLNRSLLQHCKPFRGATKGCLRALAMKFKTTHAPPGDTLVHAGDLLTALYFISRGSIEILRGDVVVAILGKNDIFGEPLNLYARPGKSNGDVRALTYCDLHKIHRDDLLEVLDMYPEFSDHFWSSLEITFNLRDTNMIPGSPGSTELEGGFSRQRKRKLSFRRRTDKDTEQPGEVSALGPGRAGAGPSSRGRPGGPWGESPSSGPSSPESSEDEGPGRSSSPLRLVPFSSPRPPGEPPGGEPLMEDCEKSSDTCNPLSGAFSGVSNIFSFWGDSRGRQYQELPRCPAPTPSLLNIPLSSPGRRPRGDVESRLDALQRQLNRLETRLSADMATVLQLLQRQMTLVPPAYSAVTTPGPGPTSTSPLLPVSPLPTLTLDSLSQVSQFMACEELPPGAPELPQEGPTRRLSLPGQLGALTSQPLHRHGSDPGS
Excerpt: as §1

NMDA receptor [4] = target: T1, NMDA receptor (Rattus norvegicus, UniProt P35439); experiment: NMDA receptor gated single neuron conductance (INMDA) in hippocampal CA1 pyramidal neurons; type: cell-based; conditions: for relative potency / magnitude as enhancer of INMDA among the tested compounds: low concentrations (50-100 nM)
T1 construct: in hippocampal CAI pyramidal neurons; from tissue; host or cells: in vitro hippocampal slices, CA1 pyramidal neurons
Excerpt: (§2) The effects of the three compounds were examined on 1) NMDA receptor gated single neuron conductance (INMDA) in hippocampal CAI pyramidal neurons and 2) the magnitude of long term potentiation (LTP) and long term depression (LTD) at Schaffer collateral CA1 synapses, in in vitro hippocampal slices.

[5] = test system: Schaffer collateral CA1 synapses; experiment: long term potentiation (LTP) at Schaffer collateral CA1 synapses, in vitro hippocampal slices; type: cell-based; conditions: for effect on magnitude of LTP: high frequency stimulus
Excerpt: as §2

[6] = test system: Schaffer collateral CA1 synapses; experiment: long term depression (LTD) at Schaffer collateral CA1 synapses, in vitro hippocampal slices; type: cell-based; conditions: 1 μM; low frequency stimulus
Excerpt: as §2

[7] = alternating T-maze learning task; type: in vivo, rat; conditions: 60 min before testing
Description: Male 3 month old Fisher 344 X Brown Norway F1 cross rats (FBNF1) were used for this study. The t-maze was constructed with arms (45 cm long×10 cm wide×10 cm high) made of black Plexiglas enclosing the maze. Two plastic bottle caps, lined with wire mesh, were secured to the end of each goal arm in which the food reward (Cheerios, 100 mg/piece) was placed. Before the start of training, animals were gradually deprived of food to approximately 85% of their free feeding weight. On three successive days before the start of training, animals were habituated to the t-maze with food located throughout the maze. […] On the subsequent testing day, animals were given injections of AK51(0.3, 1, 3, 10, 30 mg/kg p.o.), or DMSO vehicle (1 mg/ml; Sigma, Saint Louis Mo.) in a blind manner via gastric gavage (4″, 16-ga; Braintree Scientific, Braintree Mass.) 60 min prior to the start of testing (n=8-9 per group. On the first trial of testing, both arms were baited with food and for the subsequent 20 trials only alternating choices (opposite of the animal's previous choice) were rewarded (˜30 sec inter-trial interval). The number of trials to criterion (5 consecutive correct choices) was calculated for each animal. Data was analyzed by ANOVA followed by Fisher PLSD post hoc tests comparing individual drug doses to vehicle (α=0.05). […]

NMDA receptor [8] = target: T1, NMDA receptor; conditions: cited from earlier work
[9] = test system: Schaffer collateral CA1 synapses; conditions: cited from earlier work
[10] = test system: Schaffer collateral CA1 synapses; conditions: cited from earlier work; remark: listed apart in the source

% Inhibition (Glutamate, AMPA): −8% | % Inhibition (Glutamate, Kainate): −13% | % Inhibition (Glutamate, NMDA, Agonism): 27% | % Inhibition [1]: −5% | % Inhibition [2]: −14% | % Inhibition (Glutamate, Non-Selective): −10% | % Inhibition [3]: 4% | effect on single shock evoked INMDA (NMDA e.p.s.c.s) (NMDA receptor [4]; 1 μM): enhancement | effect on single shock evoked INMDA (NMDA e.p.s.c.s) (NMDA receptor [4]; 1 μM, listed as NRX-10,051): enhanced | effect on NMDA current (NMDA receptor-gated current, whole-cell recording) (NMDA receptor [4]; FIG. 4, 100 nM and 1 μM, 20 min bath application): enhances
Structure (SMILES): O=C1NCC12CCCN2 (stereo not drawn) [AK51]
inhibition at 10 µM (Potassium Channel hERG): 3% | effect on single shock evoked INMDA (NMDA e.p.s.c.s) (NMDA receptor [4]; 100 nM, listed as NRX-10,051): enhanced; also recorded: marked enhancement | relative potency / magnitude as enhancer of INMDA among the tested compounds (NMDA receptor [4]): less potency than compound B; also recorded: smaller in magnitude | effect on magnitude of LTP ([5]; 100 nM): potentiate | effect on magnitude of LTP ([5]; 1 μM): potentiate | effect on magnitude of LTP ([5]; 1 μM, listed as NRX-10,051): doubled | effect on LTP ([5]; FIG. 4, 100 nM and 1 μM bath application): enhances | effect on LTD [6]: not altering | learning behavior in the T-maze test ([7]; 1.0 mg/kg by mouth, P<0.001): statistically significant enhancement | learning behavior in the T-maze test ([7]; 3.0 mg/kg by mouth, P<0.01): statistically significant enhancement

Structure (SMILES): C[C@@H](O)[C@H](N)C(=O)N1CCC[C@H]1C(=O)N1CCC[C@H]1C(=O)N[C@H](C(N)=O)[C@@H](C)O [GLYX-13] (H-TPPT-NH2)
effect on burst INMDA (NMDA receptor [8]; 100 μM): reducing | effect on burst-activated INMDA (NMDA receptor [8]; low concentration 1-10 μM): enhancement | effect on single pulse evoked INMDA (NMDA receptor [8]; low concentration 1-10 μM): reducing | effect on LTP ([9]; 100 μM): reducing | effect on LTP ([9]; low concentration 1-10 μM): enhancement | effect on LTD ([10]; 100 μM): no longer affected | effect on LTD ([10]; low concentration 1-10 μM): reducing

effect on single shock evoked INMDA (NMDA e.p.s.c.s) (NMDA receptor [4]; 100 nM): only a mild enhancement | effect on single shock evoked INMDA (NMDA e.p.s.c.s) (NMDA receptor [4]; 100 nM, listed as AK52): enhancement | effect on single shock evoked INMDA (NMDA e.p.s.c.s) (NMDA receptor [4]; 1 μM): significant reduction | effect on single shock evoked INMDA (NMDA e.p.s.c.s) (NMDA receptor [4]; 1 μM, listed as AK52): marked reduction | relative potency / magnitude as enhancer of INMDA among the tested compounds (NMDA receptor [4]): weakest enhancer
Structure (SMILES): CC(O)C(NC(=O)OCc1ccccc1)C(=O)N1CC2(CCCN2C(=O)OCc2ccccc2)C1=O (stereo not drawn) [AK-52]
effect on magnitude of LTP ([5]; 100 nM): enhancement of LTP similar in magnitude to compound B and AK-51 | effect on magnitude of LTP ([5]; 1 μM): slight, but significant, reduction | effect on induction / magnitude of LTP ([5]; concentration not given): selectively enhances | effect on LTD [6]: without altering; also recorded: did not affect
